Where “and” joins values, the source holds several entries; their conditions need not be identical. Equal values may be shown once. Entries after “also recorded” stand apart in the source; their conditions may differ.
Assays:
spirochetes = experiment: Phase contrast microscopy of subgingival plaque: spirochetes; format: in vivo, human
Description: (§1) Twenty-two systemically healthy patients with periodontal disease, 11 males and 11 females, ages 33 to 66, participated in this trial. These volunteers were treated orally with 100 mg of CoQ10 per day for two months. Informed consent forms were signed prior to the study. Periodontal examinations and peripheral blood analyses were made before and during the trial. During the trial, the patients were not provided any routine periodontal treatment, and the staff gave them no information about oral hygiene to the patients.
(§2) The gingival index (8) and plaque index (9) were criteria to assess to degrees of gingival inflammation and accumulation of plaque on the teeth, respectively. The periodontal pocket depth was measured in interdental regions of buccal gingiva. The deepest pocket which was measured before administration of CoQ10 was selected for direct examination of oral bacteria by a microscope. The subgingival plaques were obtained with a curette, and were then dispersed in physiological saline which contained 1% gelatin, and were then prepared for analysis by phase contrast microscopy. The biopsies were viewed by means of a DS/300 microscope system (Dental Scientific Systems, Inc., VA) at 400× magnification. […]

[1] = oral administration (ref 5); cited from earlier work
[2] = Gingival index in patients with periodontal disease, oral CoQ10 trial; format: in vivo, human; parameters: Gingival Index, 2 Months: scale not given here
Description: as §1
(§3) The gingival index (8) and plaque index (9) were criteria to assess to degrees of gingival inflammation and accumulation of plaque on the teeth, respectively. The periodontal pocket depth was measured in interdental regions of buccal gingiva. The deepest pocket which was measured before administration of CoQ10 was selected for direct examination of oral bacteria by a microscope. The subgingival plaques were obtained with a curette, and were then dispersed in physiological saline which contained 1% gelatin, and were then prepared for analysis by phase contrast microscopy. The biopsies were viewed by means of a DS/300 microscope system (Dental Scientific Systems, Inc., VA) at 400× magnification. Small spirochetes, large spirochetes, spinning rods, spiral rods, small gliding rods, large gliding rods and palisading rods were identified as based upon cellular morphology and active motility. The following scores were used in each category: 0, no bacterial cells; 1, 1-9 cells; 2, 10-39 cells; and 3, more than 40 cells.
(§4) A paired-t test was used for the statistical analysis of differences in the gingival index, the plaque index, the blood CoQ10 levels, and the T4/TS ratios before and after the administration. The Wilcoxson test was used to test scores in microscopic analysis.

motile rods = experiment: Phase contrast microscopy of subgingival plaque: motile rods; format: in vivo, human
Description: as §1, §2

[3] = Plaque index in patients with periodontal disease, oral CoQ10 trial; format: in vivo, human; parameters: Plaque Index, 2 Months: scale not given here
Description: as §1, §3, §4

[4] = patients with AIDS and the AIDS-related complex; cited from earlier work
[5] = tested on: subgingival microorganisms; experiment: Phase contrast microscopy of subgingival plaque: total motile microorganisms; format: in vivo, human; parameters: key to Total subgingival microorganism score, 2 Months: 0 = no cells, 1 = 1-9, 2 = 10-39, 3 = >40 cells per category
Description: as §1, §2

[6] = cited from earlier work
T4/T8 lymphocytes = experiment: T4/T8 lymphocyte ratio in peripheral blood by flow cytometry; format: in vivo, human
Description: as §1
(§5) About 3 ml of peripheral blood was drawn for determination of CoQ10 levels and the T4/T8 ratios. The determination of the COQ10 level was performed as described by Ye et al. (10). T4(CD4) and T8 (CD8) monoclonal antibodies were purchased from Coulter Immunology, Hialeah, Fla. The lymphocytes were stained according to the two-color fluorescence, and the flow cytometric analysis was performed on an Epics Profile cell sorter (Coulter Electronics Inc., Hileah, Fla.).The sample preparations and staining procedures were performed as described by Parker et al. (11).
as §4

[7] = tested on: tumors induced by dibenzpyrene; conditions: cited from earlier work
Blood CoQ10 level = format: in vivo, human
Description: as §1, §5, §4

Plasmodium berghei = conditions: mice infected with Plasmodium berghei; cited from earlier work
[8] = Periodontal pocket depth in patients with periodontal disease, oral CoQ10 trial; format: in vivo, human
Description: as §1, §3

[9] = oral administration (ref 14); cited from earlier work
[10] = individual patients, sum of category scores (0 no motile cells, 1 1-9, 2 10-39, 3 more than 40 cells per microscopic field), 100 mg/day orally
[11] = 22 patients, 100 mg orally for two months, p<0.01
[12] = individual patients (one line per ID #), 100 mg CoQ10 per day orally for 2 months
[13] = 22 patients, 100 mg orally for two months, p<0.001
[14] = individual patients, peripheral blood, 100 mg CoQ10 per day orally

For `COC1=C(OC)C(=O)C(C/C=C(\C)CC/C=C(\C)CC/C=C(\C)CC/C=C(\C)CC/C=C(\C)CC/C=C(\C)CC/C=C(\C)CC/C=C(\C)CC/C=C(\C)CCC=C(C)C)=C(C)C1=O` [CoQ10, coenzyme Q10], the Change of spirochetes (spirochetes; 22 patients, 100 mg orally for two months, p<0.02) is listed as “decreased; also recorded: significant reduction”, the “Spirochetes score, 2 Months” value (spirochetes; [10]) is listed as 3 (8×) and 0 (7×) and 4 and 1 (3×) and 6 (2×) and 2 and the “Oxygen utilization in inflamed human gingiva” value [1] is listed as “increase”. The “Change of gingival index” value [2, 11] was “decreased”, the “Gingival Index, 2 Months” value [2, 12] was 0.5 (3×) and 0.7 (3×) and 0.1 (2×) and 0.2 (3×) and 0.3 (3×) and 1.0 (2×) and 1.4 (2×) and 1.1 and 1.3 and 0.4 and 0.8 and the “Gingival Index, 2 Months, Mean” value ([2]; mean of 22 patients, S.D. 0.4, before 0.9, p <0.001, 100 mg/day orally) was 0.6 +. For the same compound, the “Change of motile rods” value (motile rods; [11]) was “decreased; also recorded: significant reduction”, the “Motile Rods score, 2 Months” value (motile rods; [10]) was 3 (5×) and 0 (7×) and 4 (2×) and 1 (3×) and 2 (3×) and 6 and 5 and the “Change of plaque index” value ([3]; 22 patients, 100 mg orally for two months) was “did not change; also recorded: no change”. For the same compound, the “Plaque Index, 2 Months” value [3, 12] was 0.0 (5×) and 0.6 (3×) and 0.3 (2×) and 0.2 (4×) and 0.1 (4×) and 0.4 (3×) and 2.0, the “Plaque Index, 2 Months, Mean” value ([3]; mean of 22 patients, S.D. 0.4, before 0.3, not significant, 100 mg/day orally) was 0.3 + and the Host defense mechanisms [4] was “enhanced”. For the same compound, the “Total subgingival microorganism score, 2 Months” value ([5]; individual patients, motile rods plus spirochetes scores, 100 mg/day orally) was 6 (6×) and 3 (4×) and 0 (4×) and 8 (3×) and 1 (2×) and 2 and 5 and 7, the “Patients in whom all motile microorganisms in the gingiva disappeared” value ([5]; of 22 patients, 100 mg orally for two months) was 4/22 and four and the Gingival inflammation ([6]; earlier clinical trials (refs 2,3,5)) was “improvement”. For the same compound, the Periodontal pocket depth ([6]; earlier clinical trials (refs 2-5)) was “improvement”, the Tooth mobility ([6]; earlier clinical trials (refs 3-5)) was “improvement” and the “Change of T4/T8 ratio” value (T4/T8 lymphocytes; [13]) was “significantly increased”. For the same compound, the “T4/T8 Ratio, 2 months, Mean + S.D.” value (T4/T8 lymphocytes; 22 patients, before 2.9 + 1.0, p <0.001) was 3.4 + 1.3, the “T4/T8 Ratio, 2 months” value (T4/T8 lymphocytes; [14]) was 2.3 and 3.1 and 2.8 (2×) and 4.9 and 3.5 and 4.0 and 1.9 and 2.7 and 7.1 and 3.7 and 2.0 (2×) and 6.2 and 2.9 and 3.2 (2×) and 3.9 and 3.4 and 2.4 and 3.6 and 3.8 and the “Patients with evident increase of T4/T8 ratio” value (T4/T8 lymphocytes; out of 22) was 17 patients. For the same compound, the Number of survivors ([7]; dibenzpyrene tumor model, mice) was “increase”, the “Percentage of mice with tumors” value ([7]; mice susceptible to dibenzpyrene-induced tumors) was “reduction” and the “Tumor size or number” value ([7]; mice that developed tumors) was “reduction”. The “Change of blood level of CoQ10” value (Blood CoQ10 level; [13]) was “increased in all of the patients”, the “CoQ10 level, 2 months, Mean + S.D.” value (Blood CoQ10 level; 22 patients, before 0.82 + 0.19, p <0.001) was 1.75 + 0.37 ug/ml and the “CoQ10 level, 2 months” value (Blood CoQ10 level; [14]) was 1.60 µg/mL and 1.94 µg/mL and 1.59 µg/mL and 2.29 µg/mL and 2.39 µg/mL and 1.16 µg/mL and 1.99 µg/mL and 1.44 µg/mL and 2.37 µg/mL and 1.72 µg/mL and 2.22 µg/mL and 1.30 µg/mL and 2.10 µg/mL and 1.88 µg/mL and 1.65 µg/mL and 1.75 µg/mL and 1.74 µg/mL and 1.90 µg/mL and 1.55 µg/mL and 1.57 µg/mL and 1.26 µg/mL and 1.17 µg/mL. For the same compound, the Effectiveness of chloroquin (Plasmodium berghei) was “potentiated”, the “Parasitemia in the red blood cells” value (Plasmodium berghei) was “reduced” and the Survival time (Plasmodium berghei) was “prolonged”. The Survivors (Plasmodium berghei) was “increased”, the “Change of pocket depth” value [8, 13] was “decreased” and the “Pocket Depth, 2 Months” value [8, 12] was 2.3 mm (3×) and 2.7 mm (2×) and 1.9 mm and 2.4 mm and 2.6 mm (3×) and 2.9 mm (2×) and 2.2 mm and 1.8 mm and 3.6 mm and 3.4 mm and 2.8 mm (2×) and 2.5 mm and 3.0 mm and 4.5 mm and 3.7 mm. For the same compound, the “Pocket Depth, 2 Months, Mean” value ([8]; mean of 22 patients, S.D. 0.6, before 3.0, p <0.001, 100 mg/day orally) was 2.8 + mm, the “Activities of the CoQ10-dependent enzymes in inflamed dog gingiva” value [9] was “increase” and the “CoQ10 levels in inflamed dog gingiva” value [9] was “increase”.

From patent publication US6461593B1, “Therapy with coenzyme Q10 to reduce subgingival microorganisms in patients with periodontal disease” (Biomedical and Clinical Research, priority 1992, dated 2002)
